Where two headings read alike, the source gives them in different places.
How the values were obtained:
α4β2 nAChRs = α4β2 nAChRs (Rattus norvegicus, UniProt P09483+P12390); assay: biochemical; format: binding
[1] = Table 1, [3H]epibatidine binding, rat cerebral cortex
[2] = read-out: α4β2 [^3H]Epibatidine (Ki), Table 1, male rat cerebral cortex homogenate, 0.5-2 nM [3H]epibatidine, Ki from IC50 by Cheng-Prusoff

Sequence of α4β2 nAChRs (P09483 31-630): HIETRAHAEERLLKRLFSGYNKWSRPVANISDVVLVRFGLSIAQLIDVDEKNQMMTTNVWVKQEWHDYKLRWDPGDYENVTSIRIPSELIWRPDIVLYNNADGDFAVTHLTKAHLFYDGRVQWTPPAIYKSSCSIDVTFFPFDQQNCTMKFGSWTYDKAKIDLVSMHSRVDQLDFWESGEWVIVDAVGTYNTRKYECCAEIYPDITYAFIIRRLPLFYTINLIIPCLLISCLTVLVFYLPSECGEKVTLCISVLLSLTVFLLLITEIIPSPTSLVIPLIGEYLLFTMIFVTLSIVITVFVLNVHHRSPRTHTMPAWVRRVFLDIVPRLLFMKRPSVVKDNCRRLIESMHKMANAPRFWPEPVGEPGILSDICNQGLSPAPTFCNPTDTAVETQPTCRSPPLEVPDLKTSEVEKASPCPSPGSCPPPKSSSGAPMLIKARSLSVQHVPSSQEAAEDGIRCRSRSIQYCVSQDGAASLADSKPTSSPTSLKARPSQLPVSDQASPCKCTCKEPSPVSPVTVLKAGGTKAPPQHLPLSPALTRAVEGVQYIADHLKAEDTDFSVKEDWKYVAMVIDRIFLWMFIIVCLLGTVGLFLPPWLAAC
Sequence of α4β2 nAChRs (P12390 25-500): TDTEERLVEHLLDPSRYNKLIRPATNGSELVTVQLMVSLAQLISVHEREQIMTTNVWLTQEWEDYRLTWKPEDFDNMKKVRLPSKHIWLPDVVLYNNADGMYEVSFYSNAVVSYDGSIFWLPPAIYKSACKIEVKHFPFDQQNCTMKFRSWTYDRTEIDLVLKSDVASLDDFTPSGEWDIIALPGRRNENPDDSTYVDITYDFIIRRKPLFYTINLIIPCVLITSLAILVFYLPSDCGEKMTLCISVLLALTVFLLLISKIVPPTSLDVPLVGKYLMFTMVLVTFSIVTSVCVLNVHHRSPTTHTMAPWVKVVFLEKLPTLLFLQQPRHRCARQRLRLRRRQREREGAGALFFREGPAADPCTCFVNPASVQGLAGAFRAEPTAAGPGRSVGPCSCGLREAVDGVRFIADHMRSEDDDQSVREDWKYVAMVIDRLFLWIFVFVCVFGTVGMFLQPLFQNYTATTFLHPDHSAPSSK

Clc1ncc(C2CC3CCC2N3)cc1-c1ccccc1 (centres unmarked) [RTI-7527-2]
Hill Slope (α4β2 nAChRs; [1]): 0.81 ± 0.02
Ki (α4β2 nAChRs; [2]): 0.021 ± 0.005 nM

Ic1ncc(C2CC3CCC2N3)cc1-c1ccccc1 (centres unmarked) [RTI-7527-3]
Ki (α4β2 nAChRs): 0.019 ± 0.002 nM
Hill Slope (α4β2 nAChRs; [1]): 0.84 ± 0.02

Clc1ncc(C2CC3CCC2N3)cc1I (centres unmarked) [RTI-7527-4]
Ki (α4β2 nAChRs): 0.012 ± 0.0003 nM
Hill Slope (α4β2 nAChRs; [1]): 0.83 ± 0.03

Clc1cc(C2CC3CCC2N3)cnc1Cl (centres unmarked) [RTI-7527-5]
Ki (α4β2 nAChRs): 0.015 ± 0.001 nM
Hill Slope (α4β2 nAChRs; [1]): 0.87 ± 0.04
melting point: 75 to 80 °C

Nc1ncc(C2CC3CCC2N3)cc1I (stereo not drawn) [RTI-7527-24, 2-exo-[5′-(3′-Iodo-2′-aminopyridinyl)]-7-azabicyclo[2.2.1]-heptane]
Hill Slope (α4β2 nAChRs; Table 1, [3H]epibatidine binding, rat cerebral cortex, listed as 34): 1.08 ± 0.03
Ki (α4β2 nAChRs; [2]): 35.5 ± 5.4 nM

Brc1cc(C2CC3CCC2N3)cnc1I (centres unmarked) [RTI-7527-50]
Ki (α4β2 nAChRs): 0.027 ± 0.002 nM
Hill Slope (α4β2 nAChRs; [1]): 0.96 ± 0.05

Nc1ncc(C2CC3CCC2N3)cc1-c1ccccc1 (centres unmarked) [RTI-7527-51]
Ki (α4β2 nAChRs): 0.33 ± 0.05 nM
Hill Slope (α4β2 nAChRs; [1]): 0.93 ± 0.03

Clc1ncc(C2CC3CCC2N3)cc1Br (centres unmarked) [RTI-7527-53]
Hill Slope (α4β2 nAChRs; [1]): 0.95 ± 0.09
Ki (α4β2 nAChRs; [2]): 0.013 ± 0.001 nM

Nc1ncc(C2CC3CCC2N3)cc1I (centres unmarked) [RTI-7527-57]
Ki (α4β2 nAChRs): 1.47 ± 0.12 nM
Hill Slope (α4β2 nAChRs; Table 1, [3H]epibatidine binding, rat cerebral cortex, listed as 24): 1.07 ± 0.14

CON=C1C2CCC1C(c1ccc(Cl)nc1)C2 (centres unmarked) [compound 2]
Ki (α4β2 nAChRs): > 1000 nM

NC1C2CCC1C(c1ccc(Cl)nc1)C2 (centres unmarked) [compound 3]
Ki (α4β2 nAChRs): 8.2 ± 0.08 nM
Hill Slope (α4β2 nAChRs; [1]): 1.2 ± 0.04

Cc1nc(Cl)ccc1C1CC2CCC1N2 (centres unmarked) [compound 5]
Ki (α4β2 nAChRs): 256 ± 74 nM
Hill Slope (α4β2 nAChRs; [1]): 1.1 ± 0.03

CN1C2CCC1C(c1ccc(Cl)nc1)C2 (centres unmarked) [compound 11]
Ki (α4β2 nAChRs): 22.8 ± 0.001 nM
Hill Slope (α4β2 nAChRs; second table (structures A, B, C), [3H]epibatidine binding, rat cerebral cortex): 1.07 ± 0.05
melting point: 100 to 102 °C

Fc1ccc(C2CC3CCC2N3)cn1 (centres unmarked) [compound 13]
Hill Slope (α4β2 nAChRs; [1]): 0.9 ± 0.02
Ki (α4β2 nAChRs; [2]): 0.027 ± 0.001 nM

CN(C)c1ccc(C2CC3CCC2N3)cn1 (centres unmarked) [compound 19]
Hill Slope (α4β2 nAChRs; [1]): 1.0 ± 0.01
Ki (α4β2 nAChRs; [2]): 26.4 ± 1.4 nM

Oc1ncc(C2CC3CCC2N3)cc1-c1ccccc1 (centres unmarked) [compound 29]
Hill Slope (α4β2 nAChRs): 1.04 ± 0.07
Ki (α4β2 nAChRs): 51.9 ± 2 nM

Clc1cncc(C2CC3CCC2N3)c1 (centres unmarked) [compound 35]
Ki (α4β2 nAChRs): 0.12 ± 0.006 nM
Hill Slope (α4β2 nAChRs; [1]): 0.9 ± 0.03

Fc1cncc(C2CC3CCC2N3)c1 (centres unmarked) [compound 36]
Hill Slope (α4β2 nAChRs; [1]): 0.9 ± 0.01
Ki (α4β2 nAChRs; [2]): 0.037 ± 0.001 nM

Fc1ncc(C2CC3CCC2N3)cc1Cl (centres unmarked) [compound 37]
Ki (α4β2 nAChRs): 0.02 ± 0.0003 nM
Hill Slope (α4β2 nAChRs; [1]): 0.8 ± 0.004

Fc1cc(C2CC3CCC2N3)cnc1F (centres unmarked) [compound 38]
Ki (α4β2 nAChRs): 0.055 ± 0.001 nM
Hill Slope (α4β2 nAChRs; [1]): 1.0 ± 0.01

Fc1ncc(C2CC3CCC2N3)cc1I (centres unmarked) [compound 39]
Hill Slope (α4β2 nAChRs): 1.0 ± 0.05
Ki (α4β2 nAChRs): 0.076 ± 0.004 nM

Ic1cncc(C2CC3CCC2N3)c1 (centres unmarked) [compound 41]
Hill Slope (α4β2 nAChRs; [1]): 0.9 ± 0.02
Ki (α4β2 nAChRs; [2]): 0.059 ± 0.001 nM

Nc1ncc(C2CC3CCC2N3)cc1-c1cccc([N+](=O)[O-])c1 (centres unmarked) [compound 42]
Hill Slope (α4β2 nAChRs): 1.1 ± 0.09
Ki (α4β2 nAChRs): 0.047 ± 0.002 nM

COc1cccc(-c2cc(C3CC4CCC3N4)cnc2Cl)c1 (centres unmarked) [compound 45]
Ki (α4β2 nAChRs): 0.019 ± 0.005 nM
Hill Slope (α4β2 nAChRs; [1]): 0.8 ± 0.02

COc1cccc(-c2cncc(C3CC4CCC3N4)c2)c1 (centres unmarked) [compound 46]
Hill Slope (α4β2 nAChRs; [1]): 0.9 ± 0.03
Ki (α4β2 nAChRs; [2]): 0.43 ± 0.05 nM

Fc1ncc(C2CC3CCC2N3)cc1-c1ccccc1 (centres unmarked) [compound 47]
Ki (α4β2 nAChRs): 0.14 ± 0.07 nM
Hill Slope (α4β2 nAChRs; [1]): 1.1 ± 0.04

OC1C2CCC1C(c1ccc(Cl)nc1)C2 (centres unmarked) [compound 50]
Ki (α4β2 nAChRs): > 1000 nM

Nc1ccc(C2CC3CCC2C3)cn1 (centres unmarked) [compound 54]
Hill Slope (α4β2 nAChRs): 1.1
Ki (α4β2 nAChRs): 2200 nM
